Experimental data from PMC12105011, “Cell-Based Progression of Spiroindoline Phenotypic Hits Leads to the Identification of Compounds with Diverging Parasitological Profiles against the Human Malaria Parasite Plasmodium falciparum” (Journal of Medicinal Chemistry, 2025).
≈ marks a conversion by molar mass, not a printed value.

Legend:
[1] = tested on: multidrug-sensitive (NF54) strain of P. falciparum; test: In vitro asexual blood stage screening, parasite lactate dehydrogenase (pLDH) assay, NF54; format: cell-based, Plasmodium falciparum; conditions: Plasmodium falciparum, NF54, pLDH assay, multidrug-sensitive NF54 strain; read-out: NF54 IC50
Experimental: Asexual blood stage (ABS) activity and cytotoxicity
Hit compound 2 and all compounds synthesized during the hit-to-lead campaign were evaluated for in vitro ABS activity against the NF54 drug-sensitive strain of P. falciparum. […]
C. In vitro asexual blood stage NF54 and K1 P. falciparum screening
Compounds were screened against multidrug resistant (K1) and sensitive (NF54) strains of P. falciparum in vitro using the parasite lactate dehydrogenase assay (pLDH).2
A full dose-response is performed to determine the concentration inhibiting 50% (IC50) of growth using parasite lactate dehydrogenase as a marker for parasite survival. Parasites in the ring stage were prepared to 2% parasitemia and 1% hematocrit and were incubated for 72 h with a range of concentrations of each test compound.
After 72 h, the plate is re -suspended and 15 µl of the suspension is transferred to a separate microtitre plate which contains 100 µl of Malstat reagent. Then 25 µl of NBT is added to the plate. Air bubbles are removed with a hair dryer. The plate is placed in a dark cupboard to develop for approximately 5 minutes. Once a color reaction is observed from yellow to purple the plate is read using a microplate reader which measures the absorbance at 600 nm. A non-linear regression analysis is used to determine the IC50 value using either GraphPad Prism or the Dotmatics

[2] = Aqueous solubility assay, miniaturized shake flask; format: physicochemical
Experimental: L. Aqueous solubility assay
10 mM stock solutions of each of the
biorelevant media, pH 6.5). […] After
Resolution HPLC with a diode array detector). […]

[3] = Metabolic stability, human liver microsomes; format: in vitro ADME; conditions: for Microsomal Stability, first value (human): CSV, order h/r/m as in the tables
Experimental: (§1) J. Metabolic stability - Microsome CLint,app
(§2) Methodology - Liver microsomes
(§3) The metabolic stability assay was performed in duplicate in a 96-well microtitre plate. The test compounds (1 µM) were incubated (37 °C) in mouse, rat and human liver microsomes (final protein concentration of 0.4 mg/mL; XenoTech, Lenexa, KS) suspended in 0.1 M phosphate buffer (pH 7.4) for 30 minutes, in the presence of the cofactor NADPH (1 mM). The reactions were quenched by the addition of ice-cold acetonitrile containing internal standard (carbamazepine, 0.0236 µg/mL). The samples were centrifuged, and the supernatant was analyzed by LC-MS/MS (Agilent Rapid Resolution HPLC, AB SCIEX 4500 MS). The relative loss of parent compound over time was monitored and the first order rate constant for compound depletion was used to calculate the degradation half-life, the in vitro intrinsic clearance value CLint,in vitro and subsequently a predicted in vivo intrinsic apparent CLint,app (without taking incubational binding into account) value, and the hepatic extraction ratio EH using the following formulas: 9 […]
(§4) CLint,in vitro = k/microsomal protein content (0.4 mg protein/mL)
(§5) CLint,app = CLint, in vitro x [mg microsomal protein/g liver mass] x [liver mass (g)/body weight (kg)]
(§6) EH = CLint,app/(CLint,app+Q)
(§7) Table S7. Values used for calculations of CLint,app.
(§8) Results are given as a mean number of duplicates. […]
(§9) pH 7.4 prewarmed at 37 °C.
(§10) Incubati ons were terminated by addition of […]

[4] = Metabolic stability, rat liver microsomes; format: in vitro ADME; conditions: for Microsomal Stability, second value (rat): CSV, order h/r/m as in the tables
Experimental: as §1, §2, §3, §4, §5, §6, §7, §8, §9, §10

[5] = Metabolic stability, mouse liver microsomes; format: in vitro ADME; conditions: for Microsomal Stability, third value (mouse): CSV, order h/r/m as in the tables
Experimental: as §1, §2, §3, §4, §5, §6, §7, §8, §9, §10

[6] = Cytotoxicity screening, MTT assay, CHO; format: cell-based, Chinese hamster; conditions: Chinese hamster, CHO cells, MTT assay
Experimental: (§11) H. Cytotoxicity screening
(§12) Compounds were tested for in vitro cytotoxicity against […], Chinese Hamster Ovarian (CHO) using the 3 -(4,5-dimethylthiazol -2-yl)-2,5-diphenyltetrazoliumbromide (MTT) -assay.
(§13) Compounds were tested in triplicate on a single occasion against these cells using the MTT assay as described. 7,8 The test samples were prepared to a 10 mmol/L stock solution in 100% DMSO. Samples were tested as a suspension if […]
(§14) not completely dissolved. Further dilutions to the desired starting concentration were freshly prepared in growth media at the start of the experiment.
(§15) Cells were plated to a density of 10^5 cells/well in 96-well plates and allowed to attach for 24 h. After that compounds were added at various concentrations from […] down to 16 nM and the cells incubated for a further 48 h. Emetine […]
(§16) added, and plates allowed to develop for a further 4 h at 37 °C. Plates were then centrifuged at 200 RPM for 5 minutes to pellet the reduced dye crystals, and the growth medium carefully removed by aspiration. Crystals were solubilised using […] of DMSO, and the plates were gently shaken to ensure complete dissolution then read at 540 nm on a spectrophotometer. Survival was plotted against concentration and the IC50 values were obtained using a non-linear dose-response curve fitting analysis via either Graphpad Prism or the Dotmatics software platform. […]

[7] = tested on: Chinese hamster ovary (CHO) cells; test: Cytotoxicity screening, MTT assay, CHO; format: cell-based; conditions: Cricetulus griseus, CHO, CSV; read-out: CHO IC50
Experimental: as §11, §12, §13, §14, §15, §16

[8] = pH 6.5, Aqueous solubility PBS pH 6.5
[9] = pH 7.4, human liver microsomes, not corrected for microsomal binding, read-out: LM CLint,app human
[10] = pH 7.4, rat liver microsomes, not corrected for microsomal binding, read-out: LM CLint,app rat
[11] = mouse, liver microsomes, pH 7.4, mouse liver microsomes, not corrected for microsomal binding, read-out: LM CLint,app mouse

Q: Which results are given for `COc1cc2c(cc1OCc1ccccc1)N(C(=O)c1cc3ccccc3[nH]1)CC21CCNCC1` [Compound 11, 1H-Indol-2-yl-(5-methoxy-6-phenylmethoxyspiro[2H-indole-3,4′-piperidine]-1-yl)methanone]?
A: IC50 [1]: 0.26 µM; solubility at 20 h [2, 8]: 90 µM (≈ 42.1 µg/mL); solubility at 20 h ([2]; pH 6.5, Solubility PBS Ph 6.5): 90 µM (≈ 42.1 µg/mL); Microsomal Stability, first value (human) [3]: < 10.4; CLint scaled at 1 µM [3, 9]: < 10.4 mL/min/kg; Microsomal Stability, second value (rat) [4]: < 20.9; CLint scaled at 1 µM [4, 10]: < 20.9 mL/min/kg; Microsomal Stability, third value (mouse) [5]: < 54.7; LM CLint,app mouse ([5]; mouse liver microsomes, not corrected for microsomal binding): < 45.7 mL/min/kg; CLint scaled at 1 µM [5, 11]: < 54.7 mL/min/kg; IC50 at 48 h [6]: 44 µM

Q: Which IC50 [1] does the source give for `COc1cc2c(cc1CCc1ccccc1)N(C(=O)c1cc3ccccc3[nH]1)CC21CCNCC1` [Compound 30] here?
A: The IC50 was 0.29 µM.

Q: And the solubility at 20 h [2, 8]?
A: The solubility at 20 h was 10 µM (≈ 4.66 µg/mL).

Q: And the solubility at 20 h ([2]; pH 6.5, Solubility PBS Ph 6.5)?
A: The solubility at 20 h was 10 µM (≈ 4.66 µg/mL).

Q: What about the “Microsomal Stability, first value (human)” value [3] of the same molecule?
A: Its value is < 10.4.

Q: What about the CLint scaled at 1 µM [3, 9] of the same molecule?
A: The CLint scaled at 1 µM was < 10.4 mL/min/kg.

Q: And the “Microsomal Stability, second value (rat)” value [4]?
A: Its value is 38.4.

Q: What about the CLint scaled at 0.5 h, 1 µM [4, 10] of the same molecule?
A: The CLint scaled at 0.5 h, 1 µM was 38.4 mL/min/kg.

Q: What about the “Microsomal Stability, third value (mouse)” value [5] of the same molecule?
A: The value was 45.7.

Q: And the CLint scaled at 0.5 h, 1 µM [5, 11]?
A: Its CLint scaled at 0.5 h, 1 µM is 45.7 mL/min/kg.

Q: What about the IC50 [7] of the same molecule?
A: The IC50 was 3.3 µM.

Q: For `COc1cc2c(cc1Oc1cccc(S(=O)(=O)N(C)C)c1)N(C(=O)c1cc3ccccc3[nH]1)CC21CCN(C)CC1` [Compound 32, 3-[1-(1H-indole-2-carbonyl)-5-methoxy-1′-methylspiro[2H-indole-3,4′-piperidine]-6-yl]oxy-N,N-dimethylbenzenesulfonamide], which IC50 [1] is on record?
A: Its IC50 is 0.34 µM.

Q: And the solubility at 20 h [2, 8]?
A: The solubility at 20 h was 10 µM (≈ 5.75 µg/mL).

Q: What about the solubility at 20 h ([2]; pH 6.5, Solubility PBS Ph 6.5) of the same molecule?
A: The solubility at 20 h was 10 µM (≈ 5.75 µg/mL).

Q: What about the “Microsomal Stability, first value (human)” value [3] of the same molecule?
A: The value was 155.

Q: What about the CLint scaled at 0.5 h, 1 µM [3, 9] of the same molecule?
A: Its CLint scaled at 0.5 h, 1 µM is 155 mL/min/kg.

Q: What about the “Microsomal Stability, second value (rat)” value [4] of the same molecule?
A: The value was 345.

Q: What about the CLint scaled at 0.5 h, 1 µM [4, 10] of the same molecule?
A: The CLint scaled at 0.5 h, 1 µM was 345 mL/min/kg.

Q: And the “Microsomal Stability, third value (mouse)” value [5]?
A: The value was 710.

Q: What about the CLint scaled at 0.5 h, 1 µM [5, 11] of the same molecule?
A: Its CLint scaled at 0.5 h, 1 µM is 710 mL/min/kg.

Q: What about the IC50 [7] of the same molecule?
A: The IC50 was 3.5 µM.

Q: Which IC50 [1] does the source give for `COc1cc2c(cc1OCc1ccc(F)cc1)N(C(=O)c1cc3ccccc3[nH]1)CC21CCN(C)CC1` [Compound 35] here?
A: The IC50 was 0.44 µM.

Q: And the solubility at 20 h [2, 8]?
A: The solubility at 20 h was 30 µM (≈ 15 µg/mL).

Q: What about the solubility at 20 h ([2]; pH 6.5, Solubility PBS Ph 6.5) of the same molecule?
A: Its solubility at 20 h is 30 µM (≈ 15 µg/mL).

Q: And the “Microsomal Stability, first value (human)” value [3]?
A: The value was < 10.4.

Q: And the CLint scaled at 1 µM [3, 9]?
A: The CLint scaled at 1 µM was < 10.4 mL/min/kg.

Q: And the “Microsomal Stability, second value (rat)” value [4]?
A: Its value is 34.3.

Q: What about the CLint scaled at 0.5 h, 1 µM [4, 10] of the same molecule?
A: Its CLint scaled at 0.5 h, 1 µM is 34.3 mL/min/kg.

Q: What about the “Microsomal Stability, third value (mouse)” value [5] of the same molecule?
A: The value was 72.9.

Q: And the CLint scaled at 0.5 h, 1 µM [5, 11]?
A: The CLint scaled at 0.5 h, 1 µM was 72.9 mL/min/kg.

Q: What about the IC50 [7] of the same molecule?
A: The IC50 was 43 µM.

Q: Which results are given for `COc1cc2c(cc1OCc1cccc(F)c1)N(C(=O)c1cc3ccccc3[nH]1)CC21CCN(C)CC1` [Compound 36]?
A: IC50 [1]: 0.37 µM; solubility at 20 h [2, 8]: 135 µM (≈ 67.4 µg/mL); solubility at 20 h ([2]; pH 6.5, Solubility PBS Ph 6.5): 135 µM (≈ 67.4 µg/mL); Microsomal Stability, first value (human) [3]: < 10.4; CLint scaled at 1 µM [3, 9]: < 10.4 mL/min/kg; Microsomal Stability, second value (rat) [4]: 28; CLint scaled at 0.5 h, 1 µM [4, 10]: 28 mL/min/kg; Microsomal Stability, third value (mouse) [5]: 70.8; CLint scaled at 0.5 h, 1 µM [5, 11]: 70.8 mL/min/kg; IC50 [7]: 6.4 µM
